Test results from article PMC9738913 (2022).

Tested on: d(GC)9 duplex (d(GC)9d(GC)9) (DNA, duplex) GCGCGCGCGCGCGCGCGC
Test: fluorescence quenching and UV-vis absorption red shift
Details: 100 mM NaCl, 50 mM sodium phosphate; PBS pH 7.4, room temperature; 5 μM proflavine, 2.5 μM DNA; intercalation

binding: yes
Structure (SMILES): Nc1ccc2cc3ccc(N)cc3nc2c1
